Laboratory results: patent US9328099B2, “Cyanomethylpyrazole carboxamides as janus kinase inhibitors” (Merck Sharp & Dohme Corp., priority 2011, dated 2016)

These compounds were tested against JAK1 (Homo sapiens (Human), UniProt P23458) (assay: Jak Biochemical HTRF Assay, JAK1). Conditions: HTRF biochemical assay, GST-tagged catalytic domain; top concentration tested […]; read-out: JAK1 IC50.
From the text: Jak Biochemical HTRF Assay Protocol
Subsequent reagent additions employed an Agilent Bravo.

JAK1, sequence (P23458 875-1153): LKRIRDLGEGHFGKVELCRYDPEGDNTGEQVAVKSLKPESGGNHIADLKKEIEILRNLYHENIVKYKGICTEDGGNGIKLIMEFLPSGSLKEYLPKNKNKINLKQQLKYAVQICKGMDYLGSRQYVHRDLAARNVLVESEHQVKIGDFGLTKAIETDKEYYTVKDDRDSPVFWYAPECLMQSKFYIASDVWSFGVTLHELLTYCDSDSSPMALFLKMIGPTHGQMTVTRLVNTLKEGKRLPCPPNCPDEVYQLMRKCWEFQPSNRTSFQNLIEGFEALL

IC50 [nM] | Structure (SMILES)
0.6 | N#CCC1(n2cc(C(N)=O)c(Nc3ccnc(F)c3)n2)CCN(C(=O)OC2CCOC2)CC1 (single isomer, unassigned) [Example 49-1, (3S or 3R)-tetrahydrofuran-3-yl 4-{4-carbamoyl-3-[(2-fluoropyridin-4-yl)amino]-1H-pyrazol-1-yl}-4-(cyanomethyl)piperidine-1-carboxylate]
0.2 | N#CCC1(n2cc(C(N)=O)c(Nc3ccccc3)n2)CCN(C(=O)Nc2ccc(C#N)cc2)CC1 [Example 38-47, 4-[4-carbamoyl-3-(phenylamino)-1H-pyrazol-1-yl]-4-(cyanomethyl)-N-(4-cyanophenyl)piperidine-1-carboxamide]
31 | N#CCC1(n2cc(C(N)=O)c(Nc3ccccc3)n2)CCN(C(=O)OCCN2CCOCC2)CC1 [Example 30-41, 2-morpholin-4-ylethyl 4-[4-carbamoyl-3-(phenylamino)-1H-pyrazol-1-yl]-4-(cyanomethyl)piperidine-1-carboxylate]
115 | N#CCC1(n2cc(C(N)=O)c(Nc3ccnc(F)c3)n2)CCC(N2CCC(O)CC2)CC1 (stereo not drawn) [Example 40-13, Cis or trans 1-[1-(cyanomethyl)-4-(4-hydroxypiperidin-1-yl)cyclohexyl]-3-[(2-fluoropyridin-4-yl)amino]-1H-pyrazole-4-carboxamide]
0.06 | N#CCC1(n2cc(C(N)=O)c(Nc3ccnc(F)c3)n2)CCC(Nc2ccccc2)CC1 (stereo not drawn) [Example 40-86, Cis or trans 1-[1-(cyanomethyl)-4-(phenylamino)cyclohexyl]-3-[(2-fluoropyridin-4-yl)amino]-1H-pyrazole-4-carboxamide]
10 | COc1cccc(Nc2nn(C3(CC#N)CCN(C(=O)OC(C)(C)C)CC3)cc2C(N)=O)n1 [Example 13-9, tert-butyl 4-(4-carbamoyl-3-(6-methoxypyridin-2-ylamino)-1H-pyrazol-1-yl)-4-(cyanomethyl)piperidine-1-carboxylate]
69 | N#CCC1(n2cc(C(N)=O)c(Nc3ccc(F)cc3)n2)CCC(NCCO)CC1 (stereo not drawn) [Example 40-68, Cis or trans 1-{1-(cyanomethyl)-4-[(2-hydroxyethyl)amino]cyclohexyl}-3-[(4-fluorophenyl)amino]-1H-pyrazole-4-carboxamide]
1 | CC(C)(C)OC(=O)N1CCC(CC#N)(n2cc(C(N)=O)c(Nc3cccc(Br)c3)n2)CC1 [Example 12-1, tert-Butyl 4-{3-[(3-bromophenyl)amino]-4-carbamoyl-1H-pyrazol-1-yl}-4-(cyanomethyl)piperidine-1-carboxylate]
12 | CNC1CCC(CC#N)(n2cc(C(N)=O)c(Nc3ccc(F)cc3)n2)CC1 (stereo not drawn) [Example 40-78, Cis or trans 1-[1-(cyanomethyl)-4-(methylamino)cyclohexyl]-3-[(4-fluorophenyl)amino]-1H-pyrazole-4-carboxamide]
0.1 | CC(C)(O)c1ccc(Nc2nn(C3(CC#N)CCN(C(=O)OCC(F)(F)F)CC3)cc2C(N)=O)cn1 [Example 10-1, 2,2,2-Trifluoroethyl 4-(4-carbamoyl-3-(6-(2-hydroxypropan-2-yl)pyridin-3-ylamino)-1H-pyrazol-1-yl)-4-(cyanomethyl)piperidine-1-carboxylate]
5 | Cc1cccc(N2CCC(CC#N)(n3cc(C(N)=O)c(Nc4ccc(F)cc4)n3)CC2)n1 [Example 3-20, 1-[4-(cyanomethyl)-1-(6-methylpyridin-2-yl)piperidin-4-yl]-3-[(4-fluorophenyl)amino]-1H-pyrazole-4-carboxamide]
0.2 | N#CCC1(n2cc(C(N)=O)c(Nc3ccc(S(=O)(=O)C(F)(F)F)cc3)n2)CCN(C(=O)OC2COC2)CC1 [Example 30-26, oxetan-3-yl 4-(4-carbamoyl-3-(4-(trifluoromethylsulfonyl)phenylamino)-1H-pyrazol-1-yl)-4-(cyanomethyl)piperidine-1-carboxylate]
22 | CS(=O)(=O)c1ccc(Nc2nn(C3(CC#N)CCOCC3)cc2C(N)=O)cc1 [Example 4-5, 1-[4-(cyanomethyl)tetrahydro-2H-pyran-4-yl]-3-{[4-(methylsulfonyl)phenyl]amino}-1H-pyrazole-4-carboxamide]
79 | N#CCC1(n2cc(C(N)=O)c(Nc3ccccc3)n2)CCN(Cc2cccc(C#N)c2)CC1 [Example 21-3, 1-[1-(3-cyanobenzyl)-4-(cyanomethyl)piperidin-4-yl]-3-(phenylamino)-1H-pyrazole-4-carboxamide]
2 | COc1ccccc1CN1CCC(CC#N)(n2cc(C(N)=O)c(Nc3ccnc(F)c3)n2)CC1 [Example 22-66, 1-[4-(cyanomethyl)-1-(2-methoxybenzyl)piperidin-4-yl]-3-[(2-fluoropyridin-4-yl)amino]-1H-pyrazole-4-carboxamide]
76 | N#CCC1(n2cc(C(N)=O)c(Nc3ccccc3)n2)CN(C(=O)OCCc2ccccc2)C1 [Example 30-58, 2-phenylethyl 3-[4-carbamoyl-3-(phenylamino)-1H-pyrazol-1-yl]-3-(cyanomethyl)azetidine-1-carboxylate]
0.1 | N#CCC1(n2cc(C(N)=O)c(Nc3ccnc(F)c3)n2)CCN(Cc2ccc(O)nc2)CC1 [Example 22-68, 1-{4-(cyanomethyl)-1-[(6-hydroxypyridin-3-yl)methyl]piperidin-4-yl}-3-[(2-fluoropyridin-4-yl)amino]-1H-pyrazole-4-carboxamide]
6 | CS(=O)(=O)c1ccc(Nc2nn(C3(CC#N)CN(C(=O)OC4CCCC4)C3)cc2C(N)=O)cc1 [Example 30-74, cyclopentyl 3-(4-carbamoyl-3-{[4-(methylsulfonyl)phenyl]amino}-1H-pyrazol-1-yl)-3-(cyanomethyl)azetidine-1-carboxylate]
0.04 | N#CCC1(n2cc(C(N)=O)c(Nc3ccnc(F)c3)n2)CCC(Nc2ccccc2F)CC1 (stereo not drawn) [Example 40-17, Cis or trans 1-{1-(cyanomethyl)-4-[(2-fluorophenyl)amino]cyclohexyl}-3-[(2-fluoropyridin-4-yl)amino]-1H-pyrazole-4-carboxamide]
18 | N#CCC1(n2cc(C(N)=O)c(Nc3ccccc3)n2)CCN(C(=O)c2ccccn2)CC1 [Example 34-9, 1-[4-(cyanomethyl)-1-(pyridin-2-ylcarbonyl)piperidin-4-yl]-3-(phenylamino)-1H-pyrazole-4-carboxamide]
11 | N#CCC1(n2cc(C(N)=O)c(Nc3ccccc3)n2)CN(C(=O)OC2CCOCC2)C1 [Example 30-63, tetrahydro-2H-pyran-4-yl 3-[4-carbamoyl-3-(phenylamino)-1H-pyrazol-1-yl]-3-(cyanomethyl)azetidine-1-carboxylase]
0.4 | CC(C)(C)OC(=O)N1CCC(CC#N)(n2cc(C(N)=O)c(Nc3ccnc(C(N)=O)c3)n2)CC1 [Example 9-27, tert-butyl 4-{4-carbamoyl-3-[(2-carbamoylpyridin-4-yl)amino]-1H-pyrazol-1-yl}-4-(cyanomethyl)piperidine-1-carboxylate]
0.9 | N#CCC1(n2cc(C(N)=O)c(Nc3ccnc(F)c3)n2)CCN(C(=O)OC2CCOC2)CC1 (centres unmarked) [Example 30-16, tetrahydrofuran-3-yl 4-{4-carbamoyl-3-[(2-fluoropyridin-4-yl)amino]-1H-pyrazol-1-yl}-4-(cyanomethyl)piperidine-1-carboxylate]
